The subject of one test is MCF7. Nature of the test: Cytotoxicity against human MCF7 cells after 72 hrs by SRB assay. The following applies: MCF7, 72 h. In kind it is functional, cell-based.
For a further test, the target named is T1, Aromatase (Homo sapiens, UniProt P11511).
T1 sequence (P11511 whole entry): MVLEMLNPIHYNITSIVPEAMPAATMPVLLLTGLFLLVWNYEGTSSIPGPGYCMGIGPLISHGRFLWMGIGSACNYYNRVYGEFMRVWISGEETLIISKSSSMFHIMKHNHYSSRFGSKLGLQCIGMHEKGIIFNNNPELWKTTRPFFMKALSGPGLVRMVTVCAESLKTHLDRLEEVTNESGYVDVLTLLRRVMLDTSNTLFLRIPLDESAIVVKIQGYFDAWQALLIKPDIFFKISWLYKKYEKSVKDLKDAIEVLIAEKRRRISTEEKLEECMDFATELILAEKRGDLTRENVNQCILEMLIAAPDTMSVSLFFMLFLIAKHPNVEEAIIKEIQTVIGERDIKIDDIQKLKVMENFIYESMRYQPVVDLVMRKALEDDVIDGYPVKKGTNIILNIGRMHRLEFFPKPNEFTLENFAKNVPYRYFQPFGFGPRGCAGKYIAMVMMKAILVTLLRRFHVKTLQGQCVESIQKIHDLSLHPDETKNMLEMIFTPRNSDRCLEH

As usually defined, the IC50 is the concentration that gives 50% inhibition. A higher IC50 goes with weaker potency.

Description for Aromatase: Inhibition of aromatase (unknown origin) using dibenzylfluorescein as substrate after 30 mins by fluorescence assay

In the case of `C[C@]12CC[C@@H](O)C(=O)[C@H]1CC[C@@H]1[C@@H]2CC[C@]2(C)[C@@H](O)CC[C@@H]12` [3ALPHA,17BETA-DIHYDROXY-5BETA-ANDROSTAN-4-ONE], the 50% inhibitory concentration (IC50) in the test with MCF7 is 16.4 µM; at Aromatase, 3.9 µM.

Take `C[C@]12C[C@@H](O)[C@H]3[C@@H](CCC4=C(O)C(=O)CC[C@@]43C)[C@@H]1CC[C@@H]2O`: the IC50 in the test on MCF7 amounted to 12.5 µM; against Aromatase it was 10.9 µM. Turning to `C[C@]12CC[C@H]3[C@@H](CC[C@@]4(O)[C@@H](O)C(=O)CC[C@]34C)[C@@H]1CCC2=O`, the IC50 in the test with MCF7 is 15 µM; against Aromatase, 29.1 µM. For `C[C@]12CC[C@H]3[C@@H](CCC4=C(O)C(=O)CC[C@@]43C)[C@@H]1CC[C@@H]2O`, the IC50 turned out to be 16.5 µM in the test on MCF7 and 47 µM against Aromatase. On the same counts, the results for `C[C@]12CCC(=O)C(O)=C1CC[C@@H]1[C@@H]2CC[C@]2(C)C(=O)CC[C@@H]12` [FORMESTANE] are 20 µM and 58.6 µM. In the case of `CC[C@]1(O)C[C@@H]2CN(CCc3c([nH]c4ccccc34)[C@@](C(=O)OC)(c3cc4c(cc3OC)N(C)[C@H]3[C@@](O)(C(=O)OC)[C@H](OC(C)=O)[C@]5(CC)C=CCN6CC[C@]43[C@@H]65)C2)C1` [VINBLASTINE], the midpoint of inhibition in the test with MCF7, the IC50, lay at 0.0109 µM.

Source of the values: ChEMBL document CHEMBL2429769, “Synthesis and bioconversions of formestane” (J Nat Prod, 2013).
